Assay results from patent US8883836B2, “Solid forms of bendamustine hydrochloride” (Cephalon, Inc., priority 2008, dated 2014).

Experiments:
[1] = Gravimetric Vapor Sorption (GVS); assay type: physicochemical
Method: Gravimetric Vapor Sorption (GVS)
Sorption isotherms were obtained using a Hiden IGASorp moisture sorption analyser, controlled by CFRSorp software. The sample temperature was maintained at 25° C. by a Huber recirculating water bath. The humidity was controlled by mixing streams of dry and wet nitrogen, with a total flow rate of 250 ml·min-1. The relative humidity was measured by a calibrated Vaisala RH probe (dynamic range of 0-95% RH), located near the sample. The weight change, (mass relaxation) of the sample as a function of % RH was constantly monitored by themicrobalance (accuracy ±0.001 mg). Typically 1-3 mg of sample was placed in a tared mesh stainless steel basket under ambient conditions. The sample was loaded and unloaded at 40% RH and 25° C. (typical room conditions). A moisture sorption isotherm was performed as outlined below (2 scans giving 1 complete cycle). The standard isotherm was performed at 25° C. at 10% RH intervals over a 0-90% RH range.
The software uses a least squares minimization procedure together with a model of the mass relaxation, to predict an asymptotic value. The measured mass relaxation value must be within 5% of that predicted by the software before the next % RH value is selected. The minimum equilibration time was set to 1 hour and the maximum to 4 hours.

[2] = Storage of solid forms under temperature/humidity or ambient conditions, XRPD re-analysis; assay type: physicochemical
[3] = pKa Determination (Sirius GlpKa, UV); assay type: physicochemical; details: by UV in aqueous conditions, 25° C.
Method: pKa Determination and Prediction
Data were collected on a Sirius GlpKa instrument with a D-PAS attachment. Measurements were made at 25° C. in aqueous solution by UV. The compound was initially dissolved in DMSO at 5 mg/ml of which 50 μl (0.25 mg) was used for the titration from pH 1.3 to 9.0. The titration media was ionic-strength adjusted (ISA) with 0.15 M KCl (aq). The data were refined using Refinement Pro software v1.0. Prediction of pKa values was made using ACD pKa prediction software v9.

[4] = Log P Determination (potentiometric titration, octanol:ISA water); assay type: physicochemical
Text: Data were collected by potentiometric titration on a Sirius GlpKa instrument using three ratios of octanol:ionic-strength adjusted (ISA) water to generate Log P, Log Pion, and Log D values. The data were refined using Refinement Pro software v1.0. Prediction of Log P values was made using ACD v9 and Syracuse KOWWIN v1.67 software.

[5] = Preparation of solutions: solubility of Form 1 in solvents; details: for Volume Added: 50 mg Form 1, aliquots with heating to 50° C. until clear solution
Method: Preparation of Solutions of Bendamustine Hydrochloride
50 mg of bendamustine hydrochloride Form 1 was weighed into a screw-top vial. Solvent was added in aliquots (with heating to 50° C.) until a clear solution was obtained.

[6] = Maturation Experiment (slurry of Form 1 in solvents, XRPD); assay type: physicochemical; details: slurry 48 hours, 4 hour periods at 50 C and ambient
Method: Approximately 10 mg of Form 1 bendamustine hydrochloride was slurried in the solvents list in Table 3. The slurries were shaken for 48 hours with alternating 4 hour periods at 50 C and ambient temperature. Any solid material was then isolated by filtration and analyzed by XRPD. Solutions were allowed to evaporate.

[7] = Stability of Forms 1 and 2 (temperature/humidity storage, XRPD); assay type: physicochemical
Method: Stability of Forms 1 and 2 of Bendamustine Hydrochloride
10 mg of bendamustine hydrochloride Form 1 (A), bendamustine hydrochloride Form 2 (B), and a 1:1 mixture of Forms 1 and 2 (C) were stored under the conditions listed in Table 7. Samples were analyzed by XRPD at 1 day, 2 week, and 6 week time points. […] The rate of this conversion appears to increase with temperature. The purity of Forms 1 and 2 after storage at 4° C./87% RH (5) and 60° C./75% RH (13) for 6 weeks was measured.

[8] = Light Stability (Suntest Light Box); assay type: physicochemical; details: for Purity (%): HPLC
Method: Light Stability of Bendamustine Hydrochloride
Samples of Form 1 and Form 2 of Bendamustine Hydrochloride were stressed in a Suntest Light Box with a light intensity of 250 watts/m2 for 1 week with the black body temperature set to 25° C. A blank of each sample, wrapped in foil for protection, was also included in the experiment. After the experiment, samples were analyzed by XRPD and the purity was determined by HPLC.

[9] = light stressed, 250 watts/m2, 1 week, hydrochloride

SMILES: Cl.Cn1c(CCCC(=O)O)nc2cc(N(CCCl)CCCl)ccc21 [Form 1, bendamustine hydrochloride]
- hygroscopicity ([1]; GVS, 0 to 90% RH): low hygroscopicity
- weight increase (hygroscopicity) ([1]; between 0 and 90% relative humidity (RH)): 0.7%
- solid form by XRPD re-analysis after GVS humidity cycles ([1]; reanalysis under ambient conditions, hydrochloride): did not lead to a significant change in XRPD pattern
- change on storage (XRPD) ([2]; 1 week at 40° C./75% RH, hydrochloride): no significant changes
- change on storage (XRPD) ([2]; 2 months at 25° C./94% RH): converted to a hydrate of bendamustine hydrochloride (Form 2)
- change on storage (XRPD) ([2]; 3 weeks at 40° C./11% RH): no significant changes
- change on storage (XRPD) ([2]; one month at 25° C./94% RH): in the process of converting to Form 2
- pKa (Acid) [3]: 4.17
- LogP ([4]; octanol:ISA water): 1.10
- LogD ([4]; pH7.4): 0.68
- Solution Obtained? ([5]; Acetic acid, 50 mg in 1 ml): Yes (50° C.)
- Volume Added ([5]; Acetic acid): 1000 µL
- Solution Obtained? ([5]; DMA, 50 mg in 500 μl): Yes (50° C.)
- Volume Added ([5]; DMA): 500 µL
- Solution Obtained? ([5]; DMF, 50 mg in 500 μl): Yes (50° C.)
- Volume Added ([5]; DMF): 500 µL
- Solution Obtained? ([5]; DMSO, 50 mg in 100 μl): Yes (50° C.)
- Volume Added ([5]; DMSO): 100 µL
- Solution Obtained? ([5]; Ethanol, 50 mg in 1 ml): Yes (50° C.)
- Volume Added ([5]; Ethanol): 1000 µL
- Solution Obtained? ([5]; Formamide, 50 mg in 1 ml): Yes (50° C.)
- Volume Added ([5]; Formamide): 1000 µL
- Solution Obtained? ([5]; Methanol, 50 mg in 100 μl): Yes (50° C.)
- Volume Added ([5]; Methanol): 100 µL
- XRPD Analysis after maturation ([6]; Acetone): Form 1
- XRPD Analysis after maturation ([6]; Acetonitrile): Form 1
- XRPD Analysis after maturation ([6]; Anisole): Form 1
- XRPD Analysis after maturation ([6]; DCM): Form 1
- XRPD Analysis after maturation ([6]; DIPE): Form 1
- XRPD Analysis after maturation ([6]; Diethyl ether): Form 1
- XRPD Analysis after maturation ([6]; Dioxane): Form 1
- XRPD Analysis after maturation ([6]; Ethanol): Form 1
- XRPD Analysis after maturation ([6]; Ethyl acetate): Form 1
- XRPD Analysis after maturation ([6]; Heptane): Form 1
- XRPD Analysis after maturation ([6]; IPA): Form 1
- XRPD Analysis after maturation ([6]; Isopropyl acetate): Form 1
- XRPD Analysis after maturation ([6]; MIBK): Form 1
- XRPD Analysis after maturation ([6]; Methyl acetate): Form 1
- XRPD Analysis after maturation ([6]; Nitromethane): Form 1
- XRPD Analysis after maturation ([6]; TBME): Form 1
- XRPD Analysis after maturation ([6]; THF): Form 1
- XRPD Analysis after maturation ([6]; Toluene): Form 1
- XRPD Analysis after maturation ([6]; Water): degradant
- purity after storage ([7]; 4° C./87% RH (5) and 60° C./75% RH (13) for 6 weeks): No large purity decreases
- kinetic stability on storage ([7]; 6 weeks at 4° C./34 to 76% RH, 25° C./43 to 75% RH and 60° C./11 to 75% RH): kinetically stable
- form conversion on storage at high humidity ([7]; 60° C./95% RH, 25° C. 94% RH and possibly 4° C./88% RH for 6, 6 and 2 weeks respectively): conversion of Form 1 to 2
- form conversion under high humidity conditions ([7]; ~90% RH, rate appears to increase with temperature): conversion of Form 1 of bendamustine hydrochloride to Form 2 was observed
- change in crystallinity and purity during light stress test ([8]; 250 watts/m2, 1 week, 25° C., hydrochloride): only a slight decrease in purity
- stability to degradation in light ([8]; as compared to Form 2): more stable to degradation in light
- XRPD ([8]; blank wrapped in foil, 1 week in light box): No change
- Purity (%) ([8]; blank wrapped in foil, 1 week in light box, listed as Form 1 blank, hydrochloride): 97.3%
- Purity (%) [8, 9]: 95.9%
- XRPD [8, 9]: No change (sample brown in colour)
